Results: patent US10953011B2, “Methods of treating virally associated cancers with histone deacetylase inhibitors” (priority 2019, dated 2021)
Like-named read-outs stand apart in the source and are kept apart here.

Key:
HDAC5 = HDAC5 (Homo sapiens, UniProt Q9UQL6); test: in vitro HDAC inhibition assay (fluorescence); assay type: biochemical; details: 1 h pre-incubation; 2 μM HDAC Substrate Class 2a; read-out: IC50 (μM) HDAC5
Method: (§1) Briefly, all of the compounds are dissolved in DMSO. A series of dilutions of the compounds were prepared with 10% DMSO in HDAC assay buffer and 5 μl of the dilution was added to a 50 μl reaction so that the final concentration of DMSO is 1% in all of reactions. The compounds were pre-incubated in duplicate at RT for 1 hour in a mixture containing HDAC assay buffer, 5 μg BSA, HDAC enzyme (see Table 7) and a the particular HDACi. After 1 hour, the enzymatic reactions were initiated by the addition of HDAC substrate (BPS Bioscience) to a final concentration of 10 μM or 2 μM. The enzymatic reaction proceeded for 30 minutes at 37° C.
(§2) HDAC activity assays were performed in duplicates at each concentration. The fluorescent intensity data were analyzed using the computer software, Graphpad Prism. In the absence of the compound, the fluorescent intensity (Ft) in each data set was defined as 100% activity. In the absence of HDAC, the fluorescent intensity (Fb) in each data set was defined as 0% activity. The percent activity in the presence of each compound was calculated according to the following equation: % activity=(F−Fb)/(Ft−Fb), where F=the fluorescent intensity in the presence of the compound.
(§3) The values of % activity versus a series of compound concentrations were then plotted using non-linear regression analysis of Sigmoidal dose-response curve generated with the equation Y=B+(T−B)/1+10^((Log EC50-X)×Hill Slope), where Y=percent activity, B=minimum percent activity, T=maximum percent activity, X=logarithm of compound and Hill Slope=slope factor or Hill coefficient. The IC50 value was determined by the concentration causing a half-maximal percent activity.

HDAC4 = HDAC4 (Homo sapiens, UniProt P56524); test: in vitro HDAC inhibition assay (fluorescence); assay type: biochemical; details: 1 h pre-incubation; 2 μM HDAC Substrate Class 2a; read-out: IC50 (μM) HDAC4
Method: as §1, §2, §3

HDAC11 = biological target: T1, HDAC11 (Homo sapiens, UniProt Q96DB2); test: in vitro HDAC inhibition assay (fluorescence); assay type: biochemical; details: 1 h pre-incubation; 2 μM HDAC Substrate Class 2a; read-out: IC50 (μM) HDAC11
T1 sequence (Q96DB2 1-347): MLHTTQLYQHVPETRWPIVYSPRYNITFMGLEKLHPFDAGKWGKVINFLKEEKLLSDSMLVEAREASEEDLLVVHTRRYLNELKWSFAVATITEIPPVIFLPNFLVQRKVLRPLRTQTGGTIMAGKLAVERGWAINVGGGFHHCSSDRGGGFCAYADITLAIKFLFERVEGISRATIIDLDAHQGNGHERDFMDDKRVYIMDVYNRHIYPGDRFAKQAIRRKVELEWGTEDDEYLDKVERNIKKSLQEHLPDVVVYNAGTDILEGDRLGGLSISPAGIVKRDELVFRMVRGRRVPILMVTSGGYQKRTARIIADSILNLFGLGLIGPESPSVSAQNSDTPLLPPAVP
Method: as §1, §2, §3

[1] = Single dose pharmacokinetics of oral nanatinostat in patients; assay type: in vivo, humans; details: human, serum; for AUC: read-out: AUC (ng-h/mL), geometric mean; for AUC(0-t): read-out: AUClast (ng-h/mL), geometric mean; for Cmax: read-out: Cmax (ng/mL), geometric mean; for Tmax: read-out: Tmax (h), median (range)
HDAC8 = biological target: T2, HDAC8 (Homo sapiens, UniProt Q9BY41); test: biochemical
T2 sequence (Q9BY41 1-377): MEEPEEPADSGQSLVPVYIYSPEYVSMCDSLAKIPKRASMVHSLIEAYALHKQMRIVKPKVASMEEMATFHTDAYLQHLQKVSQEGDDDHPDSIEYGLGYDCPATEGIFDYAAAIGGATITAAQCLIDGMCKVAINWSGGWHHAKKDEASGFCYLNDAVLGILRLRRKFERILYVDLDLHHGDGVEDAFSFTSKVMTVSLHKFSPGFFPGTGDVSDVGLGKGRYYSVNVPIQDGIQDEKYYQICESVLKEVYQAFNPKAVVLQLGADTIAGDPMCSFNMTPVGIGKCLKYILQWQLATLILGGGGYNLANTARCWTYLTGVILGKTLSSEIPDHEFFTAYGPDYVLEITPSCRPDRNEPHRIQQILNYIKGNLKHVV
Method: as §1
as §2, with “compound. […]” for “compound.”

HDAC 1-3 = details: descriptive statement; cited from earlier work
[2] = 5 mg, A = 5 mg VRx-3996 p.o. and 450 mg Valganciclovir p.o., single dose
[3] = 10 mg, B = 10 mg VRx-3996 p.o. and 450 mg Valganciclovir p.o., single dose
[4] = 10 mg, C = 10 mg VRx-3996 p.o. and 900 mg Valganciclovir p.o., single dose

Sequence of HDAC5 (Q9UQL6 whole entry): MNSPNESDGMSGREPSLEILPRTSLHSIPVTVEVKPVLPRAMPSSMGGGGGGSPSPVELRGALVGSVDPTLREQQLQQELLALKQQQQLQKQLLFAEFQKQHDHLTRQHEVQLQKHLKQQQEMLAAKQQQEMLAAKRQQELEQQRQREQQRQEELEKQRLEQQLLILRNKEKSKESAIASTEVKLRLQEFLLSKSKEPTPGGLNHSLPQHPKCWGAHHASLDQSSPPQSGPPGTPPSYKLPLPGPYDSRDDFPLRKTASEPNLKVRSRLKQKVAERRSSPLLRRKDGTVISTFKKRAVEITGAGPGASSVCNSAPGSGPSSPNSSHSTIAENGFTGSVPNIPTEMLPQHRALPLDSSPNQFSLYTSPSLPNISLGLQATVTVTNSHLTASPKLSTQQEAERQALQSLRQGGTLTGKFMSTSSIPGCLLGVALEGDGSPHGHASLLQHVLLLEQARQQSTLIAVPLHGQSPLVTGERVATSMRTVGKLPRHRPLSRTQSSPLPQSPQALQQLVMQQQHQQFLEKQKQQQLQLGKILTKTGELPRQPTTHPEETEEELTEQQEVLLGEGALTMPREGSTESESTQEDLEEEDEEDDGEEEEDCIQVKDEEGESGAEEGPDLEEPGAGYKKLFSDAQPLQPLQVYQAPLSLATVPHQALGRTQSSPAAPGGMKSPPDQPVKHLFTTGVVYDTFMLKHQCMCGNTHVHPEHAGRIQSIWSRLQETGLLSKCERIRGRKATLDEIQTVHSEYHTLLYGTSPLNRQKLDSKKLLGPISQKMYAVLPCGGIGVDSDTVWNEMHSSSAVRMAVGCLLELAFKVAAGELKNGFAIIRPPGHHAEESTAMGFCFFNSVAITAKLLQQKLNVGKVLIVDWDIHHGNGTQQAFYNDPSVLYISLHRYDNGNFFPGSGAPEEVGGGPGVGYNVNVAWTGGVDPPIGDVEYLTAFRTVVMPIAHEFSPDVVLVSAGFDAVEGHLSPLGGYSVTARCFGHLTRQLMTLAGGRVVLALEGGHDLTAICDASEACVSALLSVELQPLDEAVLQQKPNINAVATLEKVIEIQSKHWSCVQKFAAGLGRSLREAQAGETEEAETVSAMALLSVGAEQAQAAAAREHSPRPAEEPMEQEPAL
Sequence of HDAC4 (P56524 whole entry): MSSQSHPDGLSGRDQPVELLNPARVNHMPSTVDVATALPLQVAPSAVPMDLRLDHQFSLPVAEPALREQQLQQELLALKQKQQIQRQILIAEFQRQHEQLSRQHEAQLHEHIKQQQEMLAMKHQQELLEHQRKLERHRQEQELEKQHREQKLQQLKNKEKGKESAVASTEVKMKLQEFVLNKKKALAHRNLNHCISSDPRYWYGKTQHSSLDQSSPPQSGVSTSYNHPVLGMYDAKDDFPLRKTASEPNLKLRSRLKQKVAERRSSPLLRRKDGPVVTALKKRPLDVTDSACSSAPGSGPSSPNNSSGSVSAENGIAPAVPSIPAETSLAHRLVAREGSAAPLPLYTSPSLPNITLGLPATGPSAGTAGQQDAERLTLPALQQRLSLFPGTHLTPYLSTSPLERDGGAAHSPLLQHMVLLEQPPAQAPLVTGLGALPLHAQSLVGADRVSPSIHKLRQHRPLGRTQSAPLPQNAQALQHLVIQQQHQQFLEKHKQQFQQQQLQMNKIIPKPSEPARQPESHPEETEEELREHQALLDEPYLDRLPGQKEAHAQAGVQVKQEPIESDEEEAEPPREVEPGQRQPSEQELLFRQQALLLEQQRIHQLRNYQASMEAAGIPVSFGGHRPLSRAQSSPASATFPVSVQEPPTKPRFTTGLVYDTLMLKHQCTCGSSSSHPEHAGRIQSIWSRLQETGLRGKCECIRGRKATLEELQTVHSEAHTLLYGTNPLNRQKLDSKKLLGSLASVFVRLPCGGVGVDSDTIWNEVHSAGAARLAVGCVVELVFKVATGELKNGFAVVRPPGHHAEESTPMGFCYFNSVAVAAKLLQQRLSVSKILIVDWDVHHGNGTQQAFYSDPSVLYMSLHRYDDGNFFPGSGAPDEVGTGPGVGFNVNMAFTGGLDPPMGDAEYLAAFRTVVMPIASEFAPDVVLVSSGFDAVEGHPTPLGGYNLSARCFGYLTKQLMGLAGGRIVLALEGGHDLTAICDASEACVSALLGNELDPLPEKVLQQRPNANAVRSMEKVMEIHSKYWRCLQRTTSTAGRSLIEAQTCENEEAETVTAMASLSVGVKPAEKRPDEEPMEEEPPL

In the case of `O=C(NO)c1cnc(N2C[C@@H]3[C@H](C2)[C@H]3NCc2ccc3cc(F)ccc3n2)nc1` [Nanatinostat, 2-((1R,5S,6s)-6-(((6-fluoroquinolin-2-yl)methyl)amino)-3-azabicyclo[3.1.0]hexan-3-yl)-N-hydroxypyrimidine-5-carboxamide], the IC50 (HDAC5) is reported as 0.39 µM, the IC50 (HDAC4) is reported as 1 µM and the IC50 (HDAC11) is reported as 2.8 µM. It also gave an AUC [1, 2] of 117 ng·h/mL, an AUC(0-t) [1, 2] of 40.5 ng·h/mL and a Cmax [1, 2] of 18.5 ng/mL. For the same molecule, the half-life ([1]; 5 mg, A = 5 mg VRx-3996 p.o. and 450 mg Valganciclovir p.o., single dose, read-out: Half-Life (h), geometric mean (converted)) was 2.18 h, the Tmax [1, 2] was 3 h and the AUC [1, 3] was 317 ng·h/mL. For the same molecule, the AUC(0-t) [1, 3] was 165 ng·h/mL, the Cmax [1, 3] was 62.6 ng/mL and the half-life ([1]; 10 mg, B = 10 mg VRx-3996 p.o. and 450 mg Valganciclovir p.o., single dose, read-out: Half-Life (h), geometric mean (converted)) was 1.17 h. For the same molecule, the Tmax [1, 3] was 2 h, the AUC [1, 4] was 322 ng·h/mL and the AUC(0-t) [1, 4] was 227 ng·h/mL. It also gave a Cmax [1, 4] of 78.9 ng/mL, a half-life ([1]; 10 mg, C = 10 mg VRx-3996 p.o. and 900 mg Valganciclovir p.o., single dose, read-out: Half-Life (h), geometric mean (converted)) of 1.67 h and a Tmax [1, 4] of 1 h. The half-life ([1]; humans, oral, summary of Table 6, read-out: T1/2 (converted)) was roughly 2 h, the IC50 (HDAC8) was 0.86 µM and the “Activity against HDAC 1-3” value (HDAC 1-3) was “active against HDAC 1-3”.
